We go through 23 molecules from ChEMBL document CHEMBL1201862, “PubChem BioAssay data set” (2004).

Assay in all cases: NCI-60 cell line screen, 48 h
Test [1] deals with DLD-1.
Test [2] has as its system DMS-114.
The test system of test [3] is DMS-273.
Test [4] relates to HOP-18.
Test [5] deals with M19-MEL.
For test [6], the system named is KM-20L2.
The test system of test [7] is RXF 631.
The test system of test [8] is SNB-78.
The test system of test [9] is XF498.

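Each compound was tested at five concentrations against cells in 96-well plates for 48 hours. GI50 = concentration required for 50% inhibition of growth.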 Activity calls are given as the source filed them. No stated cut-off is given here; in the data, active = GI50 up to about 1.1 µM and inactive = higher.

For the molecule `O=c1c2ccccc2nc(-c2ccccc2)n1NC(=S)Nc1cccc(Cl)c1`, the GI50 is > 100 µM (inactive) in test [1]; 67.3 µM (inactive) in test [2]; 66.4 µM (inactive) in test [3]; > 100 µM (inactive) in test [4]; > 100 µM (inactive) in [5].
Consider `COC(=O)NN=C1C(C)(C)C(=O)C1(C)C`, for which the GI50 in [1], in test [3], in [6], in [7], in test [8] and in test [9] was > 100 µM (inactive) throughout.
Turning to `c1ccc(N2CCN(CCN3CCc4c([nH]c5ccccc45)C3c3cccnc3)CC2)cc1` (stereo not drawn), the GI50 in test [1], in test [2], in test [3], in [4], in test [6] and in test [5] was > 100 µM (inactive) throughout. The GI50 in [7] is 39.5 µM (inactive); in test [8] it was 56.8 µM (inactive); in test [9] it was 89.9 µM (inactive).
As to `CP(=O)(CCSc1ccccc1)c1ccccc1` (stereo not drawn), the GI50 in test [1], in test [2], in test [3], in test [4], in [6] and in [5] was > 100 µM (inactive) throughout. Further, the GI50 in test [8] and in test [9] was > 100 µM (inactive) each time.
With `CSC(C1c2ccccc2N(C)c2[nH]c(=O)n(C)c(=O)c21)S(=O)(=O)c1ccc(C)cc1` (stereo not drawn), the GI50 in test [1] is > 100 µM (inactive); in test [2], > 100 µM (inactive); in test [3], 43.5 µM (inactive); in [4], > 100 µM (inactive); in test [5] it was 40.3 µM (inactive); in test [8], > 100 µM (inactive). In addition, the GI50 in [9] is > 100 µM (inactive).
Take `CC(=O)OC1[C@H]2c3cc4c(cc3CN3CCC(C[C@@H]1OC(C)=O)C23)OCO4` (stereo partly drawn): the GI50 in test [1], in test [2], in [3], in test [6], in [5] and in test [8] was > 75 µM (inactive) in each case.
For `[O-]c1c2c(nn1-c1ccc(Cl)cc1)c1ccccc1c[n+]2Cc1ccccc1`, the GI50 in [1] was 81.5 µM (inactive); in test [2] it was > 100 µM (inactive); in [3] it was > 100 µM (inactive); in test [4], > 100 µM (inactive); in test [6] it was > 100 µM (inactive); in test [5], > 10 µM (inactive). In addition, the figures for the GI50 in test [8] and in test [9] were > 100 µM (inactive) and 35 µM (inactive), respectively.
Take `COc1cc([C@@H]2c3cc4c(cc3[C@@H](NC(=O)c3ccc(C#N)cc3)C3COC(=O)[C@@H]32)OCO4)cc(OC)c1O` (stereo partly drawn): the GI50 was 1.64 µM (inactive) in test [1]; 0.315 µM (active) in test [2]; 0.0276 µM (active) in [3]; 55.1 µM (inactive) in test [4]; 0.785 µM (active) in test [6]; 1.26 µM (inactive) in [5]. Moreover, the GI50 in test [8] was 6.03 µM (inactive).
In the case of `O=C1[C@@H]2C(c3ccccc3[N+](=O)[O-])=[N+](c3ccccc3)O[C@@H]2C(=O)N1c1ccc(Cc2ccc(N3C(=O)[C@H]4C(c5ccccc5[N+](=O)[O-])=[N+](c5ccccc5)O[C@H]4C3=O)cc2)cc1`, the GI50 in test [1] is > 100 µM (inactive); in test [2], > 100 µM (inactive); in [3], > 100 µM (inactive); in test [4], 85.9 µM (inactive); in [6], > 100 µM (inactive); in [5], > 100 µM (inactive). For the same molecule, the GI50 in [8] is > 100 µM (inactive).
Consider `COc1ccc(NCC#N)cc1`, for which the GI50 in test [1], in test [2], in test [3], in [4], in [6] and in test [5] was > 100 µM (inactive) throughout. The GI50 in test [7], in test [8] and in test [9] was > 100 µM (inactive) each time.
Take `O=[N+]([O-])c1ccc(-c2ccc(-c3csc(Nc4ccccc4)n3)o2)cc1`: the GI50 is 23.3 µM (inactive) in test [1]; 25.7 µM (inactive) in test [2]; 23 µM (inactive) in [3]; 15.8 µM (inactive) in test [4]; 21 µM (inactive) in test [6]; 29.9 µM (inactive) in test [5]. Also, the figures for the GI50 in [8] and in test [9] were 8.17 µM (inactive) and 18.4 µM (inactive), respectively.
Turning to `C/C(=N/NC(N)=S)C(CN1CCOCC1)C(C1=C(O)c2ccccc2OC1)c1ccccc1` (stereo not drawn), the GI50 in test [1], in test [4], in test [6], in test [5], in test [8] and in test [9] was > 100 µM (inactive) throughout.
Consider `O=C(Nc1ccc(Cl)c(C(F)(F)F)c1)C(=O)C(C(=O)/C=C/c1ccccc1)C1OC(=O)c2ccccc21` (stereo not drawn), for which the GI50 is > 100 µM (inactive) in test [1]; 66.5 µM (inactive) in test [2]; > 100 µM (inactive) in test [3]; > 100 µM (inactive) in [4]; > 100 µM (inactive) in [6]; 84.9 µM (inactive) in test [5]. For the same molecule, the GI50 in test [8] was 64 µM (inactive); in test [9], > 100 µM (inactive).
On to `O=C(/C=N/c1ccccc1C(=O)[O-])c1cccs1.O=C(/C=N/c1ccccc1C(=O)[O-])c1cccs1.[Zn+2]`, for which the GI50 is 39.9 µM (inactive) in test [1], > 100 µM (inactive) in test [3], > 100 µM (inactive) in test [4] and > 100 µM (inactive) in test [6].
Consider `O=[N+]([O-])c1ccc(Cc2nc3ccccc3s2)cc1`, for which the GI50 in test [1] was 41.6 µM (inactive); in test [2] it was 39.5 µM (inactive); in [3] it was 82.4 µM (inactive); in test [4] it was > 100 µM (inactive); in test [6], > 100 µM (inactive); in [5] it was 71.3 µM (inactive). In addition, the GI50 in test [8] and in [9] was > 100 µM (inactive) in each case.
`CCOP(=O)(OCC)/C(C#N)=C/c1ccco1`: the GI50 in test [1], in test [2], in test [4], in test [5], in test [7] and in test [8] was > 100 µM (inactive) in each case. The GI50 in [9] was > 100 µM (inactive).
Consider `Fc1cccc(F)c1C1SCc2nc3ccccc3n21` (stereo not drawn) [THIAZOLOBENZIMIDAZOLE], for which the GI50 was > 100 µM (inactive) in [1]; 50.2 µM (inactive) in test [3]; 53.6 µM (inactive) in test [4]; > 100 µM (inactive) in test [6]; 44.9 µM (inactive) in [5]; 63.5 µM (inactive) in test [8]. Further, the GI50 in [9] was 52 µM (inactive).
Consider `COC(=O)/C=C1\CCC2[C@@H](C(=O)CC3[C@]2(C)CCC[C@@]3(C)C(=O)OC)C1C` (stereo partly drawn), for which the GI50 in [1] was 29.2 µM (inactive); in [2], 16.1 µM (inactive); in [3], 22 µM (inactive); in test [4], 29.4 µM (inactive); in test [6], 29.3 µM (inactive); in test [5], 19.2 µM (inactive). Besides, the GI50 in [7] is 25.4 µM (inactive); in test [8], 29.2 µM (inactive); in [9], 13.7 µM (inactive).
Turning to `CCN(CC)CCC(=O)O[C@H]1CC[C@H](CC(C)[C@H]2CC(=O)C(C)C=C(C)[C@H](OC(=O)CCN(CC)CC)C(OC)C(=O)[C@@H](C)CC(C)/C=C/C=C/C=C(C)C(OC)CC3CC[C@H](C)[C@](O)(O3)C(=O)C(=O)N3CCCCC3C(=O)O2)CC1OC` (stereo partly drawn), the GI50 in test [3] is 0.361 µM (active); in test [6] it was 1.6 µM (inactive); in test [7], 0.406 µM (active); in test [8], < 0.01 µM (active).
Turning to `O=C(CSc1nnc(Cc2ccccc2)o1)Nc1ccc([N+](=O)[O-])cc1`, the GI50 in test [1] was > 100 µM (inactive); in test [2] it was 22.4 µM (inactive); in test [3], > 100 µM (inactive); in test [6], > 100 µM (inactive); in test [5], > 100 µM (inactive); in test [8] it was > 100 µM (inactive).
As for `CC1(C)C(=O)/C=C\C(=O)C(C)(C)C(=O)/C=C\C(=O)C(C)(C)C(=O)/C=C\C(=O)C(C)(C)C(=O)/C=C\C1=O`, the GI50 was 14.9 µM (inactive) in test [1]; 16.8 µM (inactive) in test [3]; 22.3 µM (inactive) in test [4]; 26.6 µM (inactive) in [6]; 20.2 µM (inactive) in [5]; 17.4 µM (inactive) in [8]. In addition, in test [9], the GI50 is 30.3 µM (inactive).
As for `CCOC(=O)/C(=C\c1cccs1)P(=O)(OCC)OCC`, the GI50 in test [1] is 21.2 µM (inactive); in test [2], 21.5 µM (inactive); in test [3], 34.6 µM (inactive); in test [4], 31.3 µM (inactive); in [6] it was 21.9 µM (inactive); in [5], 21.5 µM (inactive). Also, the GI50 in test [7] is 55.8 µM (inactive); in test [8], 49.3 µM (inactive).
As for `CN1C/C(=C\c2ccc(C(=O)O)cc2)C(=O)/C(=C/c2ccc(C(=O)O)cc2)C1`, the GI50 in test [1], in test [2], in test [3], in test [4], in test [6] and in test [5] was > 100 µM (inactive) throughout. Besides, the GI50 in test [7], in test [8] and in [9] was > 100 µM (inactive) each time.
